Measured values as given in US6916843B1, “Anti-inflammatory actions of cytochrome P450 expoxygenase-derived eicosanoids” (The United States of America as represented by the …, priority 1999, dated 2005).

Molecular target: T1, CYP2J2 (Homo sapiens, UniProt P51589)
T1 construct: The CYP2J2 cDNA (1.9 kb) or GFP cDNA (0.75 kb) were subcloned into the plasmid pcDNA3.1; expressed in transfected cells; host or cells: bovine aortic endothelial cells (BAECs), transient transfection with pcDNA3.1/CYP2J2
T1 sequence (P51589 1-502): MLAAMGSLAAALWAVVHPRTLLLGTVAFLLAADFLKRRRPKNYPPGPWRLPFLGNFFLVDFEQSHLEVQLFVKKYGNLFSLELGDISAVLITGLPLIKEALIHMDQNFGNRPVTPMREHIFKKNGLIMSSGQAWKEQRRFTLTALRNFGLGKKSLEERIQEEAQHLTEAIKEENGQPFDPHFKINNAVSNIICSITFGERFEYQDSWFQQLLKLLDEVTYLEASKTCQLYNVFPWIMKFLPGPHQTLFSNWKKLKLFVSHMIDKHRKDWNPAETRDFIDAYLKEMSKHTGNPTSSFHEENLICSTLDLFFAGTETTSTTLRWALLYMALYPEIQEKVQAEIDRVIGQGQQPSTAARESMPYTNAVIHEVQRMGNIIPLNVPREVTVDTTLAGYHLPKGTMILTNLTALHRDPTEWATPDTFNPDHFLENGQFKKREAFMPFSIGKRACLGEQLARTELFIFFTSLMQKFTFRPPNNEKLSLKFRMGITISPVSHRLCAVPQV
Assay: Arachidonic acid epoxygenase metabolite formation in CYP2J2-transfected bovine aortic endothelial cells (HPLC)
Method: To study the formation of EETs by CYP2J2 in endothelial cells, we measured EET synthesis from bovine endothelial cells transfected with CYP2J2 cDNA. Early passage bovine aortic endothelial cells were grown to 60-70% confluence and transfected with either pcDNA3.1 or pcDNA3.1/CYP2J2 using Fugene™ 6 reagent (Boehringer Mannheim Corp.) according to the manufacturer's instructions. Using this method, the transfection efficiency was 10-20%. Forty-eight hours post-transfection, cells were washed twice with phosphate-buffered saline and incubated with freshly purified [^3H]arachidonic acid (185 Ci/mmol, 4-5 μCi/175 mm^2 flask) and unlabeled arachidonic acid (10 μM) was added before addition of arachidonic acid. At various time points, the media and cells were removed and extracted with diethyl ether. The combined organic phases were dried under a nitrogen stream, resolved by reverse-phase high performance liquid chromatography (HPLC) and quantified by liquid scintillation as described by Wu et al., 271 J. Biol. Chem. 3460 (1996). […]
These control GFP-transfected cells metabolized radiolabeled arachidonic acid to epoxygenase metabolites (EETs and DHETs) at a rate of ˜8 pmol/min/10^7 cells (FIG. 6). Endothelial cell arachidonic acid metabolism was determined as follows: Forty-eight hours after transfection with either pcDNA3.1/GFP or pcDNA3.1/CYP2J2, BAECs were incubated with freshly purified [5, 6, 8, 9, 11, 12, 14, 15-^3H]arachidonic acid (185 Ci/mmol, 4-5 μCi/175-mm^2 flask) in serurm-free culture medium at 37° C. for 30-120 min. […] The BAECs and culture medium were then collected and the reaction products extracted into ethyl ether, dried under a nitrogen stream, analyzed by reverse-phase HPLC, and quantified by on-line liquid scintillation using a Radiomatic Flo-One β detector (Radiomatic Instruments, Tampa, Fla.) as described (Wu et al., 271 J. Biol. Chem. 12551 (1996), Node et al., 285 Science 1276-1279 (1999)). […]

CYP2J2: CYP2J2 cDNA (1.9 kb) subcloned into plasmid pcDNA3.1, transfected into endothelial cells
rate of formation of epoxygenase metabolites (EETs and DHETs): 17.8±2.3 pmol/minute/10^7 cells
